Measurements: patent publication US8916540B2, “Antibiotic compositions and related screening methods” (Academia Sinica, priority 2008, dated 2014)

Experiments:
Pseudomonas aeruginosa [1] = experiment: Minimal inhibitory concentration (MIC) determination; assay type: cell-based
Klebsiella pneumoniae = conditions: literature citation 28; cited from earlier work
Clostridium difficile [2] = conditions: literature citation 30; cited from earlier work
Escherichia coli = conditions: literature citation 28; cited from earlier work
[3] = biological target: T1, E. coli PBP1b TG+TP (residues 88-844) (Escherichia coli, UniProt P02919); experiment: SPR moenomycin binding to truncated PBP1b variant; conditions: PBP without the transmembrane domain
T1 construct: TG+TP (residues 88-844); His tag (implied by nickel chelation chromatography); made in house; host or cells: E. coli (pET vectors)
T1 sequence (P02919 88-844): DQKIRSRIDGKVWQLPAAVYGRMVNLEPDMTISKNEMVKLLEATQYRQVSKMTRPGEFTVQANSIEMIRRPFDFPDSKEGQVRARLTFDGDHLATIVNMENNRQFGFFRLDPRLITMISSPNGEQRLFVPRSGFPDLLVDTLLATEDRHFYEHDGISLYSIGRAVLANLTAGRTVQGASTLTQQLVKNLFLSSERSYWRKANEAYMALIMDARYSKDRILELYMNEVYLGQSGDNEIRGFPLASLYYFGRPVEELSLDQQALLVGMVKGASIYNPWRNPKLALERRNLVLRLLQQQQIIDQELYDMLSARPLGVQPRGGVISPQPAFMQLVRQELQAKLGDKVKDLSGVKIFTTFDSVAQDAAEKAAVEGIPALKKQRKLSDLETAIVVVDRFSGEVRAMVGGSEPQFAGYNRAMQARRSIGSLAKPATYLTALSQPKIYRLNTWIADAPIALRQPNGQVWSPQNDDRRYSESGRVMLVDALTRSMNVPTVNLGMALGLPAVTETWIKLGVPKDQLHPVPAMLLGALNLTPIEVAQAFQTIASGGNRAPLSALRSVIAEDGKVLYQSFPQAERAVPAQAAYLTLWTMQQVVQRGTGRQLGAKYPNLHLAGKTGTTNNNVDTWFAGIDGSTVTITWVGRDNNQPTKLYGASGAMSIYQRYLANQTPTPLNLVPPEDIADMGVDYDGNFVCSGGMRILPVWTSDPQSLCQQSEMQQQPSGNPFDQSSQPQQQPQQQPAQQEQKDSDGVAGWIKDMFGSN
Source text: . Five E. coli PBP1b variants were expressed and purified: 1) full-length protein containing transmembrane, transglycosylase and transpeptidase domains (TM+TG+TP), 2) TG+TP, 3) TM+TG, 4) TG, and 5) TP (FIG. 1B).
. FIG. 1(B) is a schematic representation of the PBP variants used for moenomycin binding studies. The full-length PBP (TM+TG+TP) contains amino acid residues 1-844 of the E. coli PBP1b P02919. TG+TP (residues 88-844), TM+TG (residues 1-409), TG (residues 195-409), and TP (residues 444-736) are truncated variants with the part of the full-length PBP1b. The moenomycin binding constant (KD) for these variants were determined using SPR.
After immobilization of the target proteins on the sensor chip, different concentrations of moenomycin were passed through the surface and the binding affinities were determined. […].
Purified PBP and its variants were immobilized onto CM3 chip (GE healthcare, Uppsala, Sweden) to about 1,500˜2,000 RU via amine-coupling method. […]. Immobilization and data collection were performed with BIAcore T100 (GE Healthcare, Uppsala, Sweden) at 25° C.

Clostridium difficile [4] = experiment: Minimal inhibitory concentration (MIC) determination; assay type: cell-based
Bordetella pertussis = experiment: as above; assay type: cell-based
Enterococcus faecalis = conditions: literature citation 31; cited from earlier work
Salmonella enterica = conditions: literature citation 38; cited from earlier work
[5] = biological target: PBP1b from Citrobacter freundii; experiment: SPR moenomycin binding to immobilized full-length PBP; conditions: steady-state affinity, average values, read-out: SPR_KD
Helicobacter pylori = conditions: literature citation 29; cited from earlier work
Pseudomonas aeruginosa [6] = conditions: literature citation 28; cited from earlier work

Moenomycin A [Compound 1]
MIC (Pseudomonas aeruginosa [1]): 40 µM | Reported values MIC (Klebsiella pneumoniae): 13.75 to 27.5 µM | Reported values MIC (Clostridium difficile [2]): 220 to 440 µM | Reported values MIC (Escherichia coli): 55 to 110 µM | moenomycin binding activity of TG+TP variant relative to full-length PBP1b (fold lower) [3]: about 5 fold | moenomycin binding activity of TG+TP variant relative to full-length PBP1b (fold lower) ([3]; listed as Moe A): decreased five-fold | MIC (Clostridium difficile [4]): >160 µM | MIC (Bordetella pertussis): 0.011 to 0.021 µM | Reported values MIC (Enterococcus faecalis): 0.1 µM | Reported values MIC (Salmonella enterica): 13.75 to 110 µM | Kd [5]: 728 nM | Reported values MIC (Helicobacter pylori): 1.3 µM | Reported values MIC (Pseudomonas aeruginosa [6]): 55 to 110 µM
